According to ChEMBL document CHEMBL5034021, “Monomeric, Dimeric, and Trimeric Tropane Alkaloids from Pellacalyx saccardianus” (J Nat Prod, 2021):
Active and inactive are the calls of the source. The calls are words filed in the database; no cut-off is given here.

Legend:
[1] = test system: Trachea; test: Myorelaxant effect in Sprague-Dawley rat tracheal ring assessed as relaxation of carbachol-induced smooth muscle contraction by organ bath assay; type: functional
[2] = test system: Trachea; test: Myorelaxant effect in Sprague-Dawley rat tracheal ring assessed as […] relaxation of carbachol-induced smooth muscle contraction by organ bath assay; type: functional, tissue-based
[3] = test system: ASPC1; test: Cytotoxicity against human ASPC1 assessed as cell viability measured for 72 hrs by cell titer glo luminescent assay; type: functional, cell-based; conditions: for IC50: ASPC1, 72 h
[4] = test system: BXPC-3; test: Cytotoxicity against human BXPC-3 assessed as cell viability measured for 72 hrs by cell titer glo luminescent assay; type: functional, cell-based; conditions: for IC50: BXPC-3, 72 h
[5] = test system: PANC-1; test: Cytotoxicity against human PANC-1 assessed as cell viability measured for 72 hrs by cell titer glo luminescent assay; type: functional, cell-based; conditions: for IC50: PANC-1, 72 h
[6] = test system: SW1990; test: Cytotoxicity against human SW1990 assessed as cell viability measured for 72 hrs by cell titer glo luminescent assay; type: functional, cell-based; conditions: for IC50: SW1990, 72 h
[7] = test system: MRC5; test: Cytotoxicity against human MRC5 assessed as cell viability measured for 72 hrs by cell titer glo luminescent assay; type: cell-based; conditions: for IC50: Homo sapiens, MRC5, 72 h

SMILES	Emax [1]	EC50 [2]	IC50 [3]	IC50 [4]	IC50 [5]	IC50 [6]	IC50 [7]	Activity [3]	Activity [4]	Activity [5]	Activity [6]	Activity ([7]; human, mrc5, 72 h, time 72 hrs)
O=C(/C=C/c1ccccc1)OC1CC2CCC(C1)N2C(=O)CCc1ccc(O)cc1 (configuration not stated)	106%	24.2 µM										
O=C(OC1CC2CCC(C1)N2)c1ccccc1 (configuration not stated)	101%	7.83 µM										
O=C(/C=C/c1ccccc1)OC1CC2CCC(C1)N2[C@@H](CC(=O)OC1CC2CCC(C1)N2)c1ccccc1 (some centres not stated)			5.8 µM	5.5 µM	10.4 µM	> 10 µM	8.4 µM					
O=C(/C=C/c1ccccc1)OC1CC2CCC(C1)N2C(CC(=O)OC1CC2CCC(C1)N2)c1ccccc1 (racemic)	71.9%	10.4 µM	6 µM	4.6 µM	10.6 µM	> 10 µM	9.8 µM					
O=CN1C2CCC1CC(OC(=O)c1ccccc1)C2 (configuration not stated)	97%	3.61 µM										
O=C(/C=C/c1ccccc1)OC1CC2CCC(C1)N2C(CC(=O)OC1CC2CCC(C1)N2C(CC(=O)OC1CC2CCC(C1)N2)c1ccccc1)c1ccccc1 (racemic)			3.4 µM	2.2 µM	1.1 µM	5.2 µM	4.2 µM					
O=C(/C=C/c1ccccc1)OC1CC2CCC(C1)N2[C@H](CC(=O)OC1CC2CCC(C1)N2)c1ccccc1 (some centres not stated)			7.7 µM	6.6 µM	9.9 µM	> 10 µM	> 10 µM					
O=C(/C=C/c1ccccc1)OC1CC2CCC(C1)N2 (configuration not stated)	82.5%	0.44 µM						inactive	inactive	inactive	inactive	Non-Toxic
CN1[C@@H]2CC[C@H]1C[C@@H](OC(=O)C(CO)c1ccccc1)C2 (mixture of isomers) [ATROPINE]	112%	0.00098 µM										
Nc1ccn([C@@H]2O[C@H](CO)[C@@H](O)C2(F)F)c(=O)n1 [GEMCITABINE]			29.1 µM	25.9 µM	30 µM	25.4 µM	35.1 µM					
